These results are taken from publication PMC11361161 (BMC Chemistry, 2024).

Where two headings read alike, the source gives them in different places.

The assay deals with human thymidylate synthase (hTS) (Homo sapiens, UniProt P04818). Description: Thymidylate synthase inhibitory assay. It is filed as biochemical.
Chain of human thymidylate synthase (hTS) (P04818 whole entry): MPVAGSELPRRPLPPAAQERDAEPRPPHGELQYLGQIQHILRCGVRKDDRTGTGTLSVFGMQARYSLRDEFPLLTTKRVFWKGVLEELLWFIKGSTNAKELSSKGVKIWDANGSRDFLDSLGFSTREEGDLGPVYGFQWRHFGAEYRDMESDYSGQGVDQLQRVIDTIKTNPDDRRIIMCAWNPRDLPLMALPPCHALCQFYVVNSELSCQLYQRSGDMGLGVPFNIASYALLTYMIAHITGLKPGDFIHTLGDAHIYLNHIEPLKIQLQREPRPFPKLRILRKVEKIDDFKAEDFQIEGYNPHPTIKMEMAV

With “7-(4-methoxyphenyl)-1,3-dimethyl-5-(naphthalen-2-yl)pyrido[2,3-d]pyrimidine-2,4(1 H,3 H)-dione [Compound 2n]”, where the note is “read-out: In vitro thymidylate synthase (TS) IC50, 30 °C, pH 7.4, 30 nM hTS, absorbance at 340 nm, mean ± SEM, triplicate”, the IC50 (usually the concentration that gives 50% inhibition) is 0.0135 ± 0.00096 µM.

Take `COc1ccc(-c2cc(-c3ccc(N(C)C)cc3)c3c(=O)[nH]c(=O)[nH]c3n2)cc1` [Compound 1j, 5-(4-(dimethylamino)phenyl)-7-(4-methoxyphenyl)pyrido[2,3-d]pyrimidine-2,4(1 H,3 H)-dione]: the IC50 was determined as 0.0205 ± 0.00109 µM.

For `COc1ccc(-c2cc(-c3ccc4ccccc4c3)c3c(=O)[nH]c(=O)[nH]c3n2)cc1` [Compound 1n, 7-(4-methoxyphenyl)-5-(naphthalen-2-yl)pyrido[2,3-d]pyrimidine-2,4(1 H,3 H)-dione], 0.0205 ± 0.00109 µM corresponded to half-maximal inhibition (IC50).

Compound `COc1ccc(-c2cc(-c3ccc(N(C)C)cc3)c3c(=O)n(C)c(=O)n(C)c3n2)cc1` [Compound 2j, 5-(4-(dimethylamino)phenyl)-7-(4-methoxyphenyl)-1,3-dimethylpyrido[2,3-d]pyrimidine-2,4(1 H,3 H)-dione] registered an IC50 of 0.0135 ± 0.00096 µM.
